System: lymph node cells from B10.RQB3-DRB1*1502 positive and negative littermates (H-2A^q)
Assay: T cell proliferation assay, lymph node cells of immunized B10.RQB3 mice
Assay type: cell-based, mouse
Details: for T cell response of DRB1*1502 transgene positive animals compared with negative littermates / B10.RQB3 controls: mice immunized with 200 μg HII 250-270 in CFA, in vitro HII 250-270 4, 20, 100 μg/ml, PPD 20, LPS 40, Con A 10 μg/ml, FIG. 2

Substance: Concanavalin A [Con A]
- T cell response of DRB1*1502 transgene positive animals compared with negative littermates / B10.RQB3 controls: similar
- mean cpm of lymph node cells challenged in vitro (positive control of the DRB1 peptide proliferation assay): > 100,000 cpm

Substance: lipopolysaccharide [LPS]
- T cell response of DRB1*1502 transgene positive animals compared with negative littermates / B10.RQB3 controls: similar
